Measured values as given in patent US20110086875A1, “Powdered Medicament for Nasal Delivery of Ascorbic Acid for Reducing Apomorphine Induced Toxicity to Ciliated Tissue” (BRITANNIA PHARMACEUTICALS LIMITED, priority 2007, published 2011).

Test system: ciliated tissue taken from the trachea of a chick embryo
Assay: Cilia beat frequency (CBF) model
Type: cell-based
From the text: By “toxic” herein is meant that the active agent has an adverse effect on the cilia beat frequency of ciliated tissue taken from the trachea of a chick embryo according to the model that is well known in the art (“The Effect of Nasal Drug Formulations on Ciliary Beating in Vitro,” Romeijn, et al.; Int. J. Pharm., 135; 1996: 137-145; “Classification of Cilio-Inhibiting Effects of Nasal Drugs,” Merkus, et al., Laryngoscope, 111(4); April 2001: 595-602). By “ameliorating said toxicity” herein is meant that the adverse effect of the active agent on the cilia beat frequency is lessened as a result of the inclusion in the medicament of ascorbic acid for co-administration with said active agent. […]
The cilia beat frequency (CBF) model is a recognised technique to investigate the relative toxicity of substances applied in solution to a section of ciliated tissue taken from the trachea of a chick embryo (Romeijn, et al., 1996, Merkus, et al., 2001). […] The tissue is then transferred to a well containing 1.0 ml of test solution and the impact on CBF assessed. Further, the reversibility of any effects can be measured by washing the tissue in Locke-Ringer solution 15 minute post administration and evaluating the recovery of CBF.

effect of adding ascorbic acid on the apomorphine-induced arrest of cilia beat movement (1% wt. ascorbic acid added to 1% apomorphine in MLR solution, single administration, FIG. 1)	Structure (SMILES)	reversibility of toxic effect on CBF after washing
ameliorated significantly	O=C1O[C@H]([C@@H](O)CO)C(O)=C1O [ascorbic acid]	–
–	CN1CCc2cccc3c2[C@H]1Cc1ccc(O)c(O)c1-3 [apomorphine]	irreversible
